Results: US20260092071A1, “COMPOUNDS AND COMPOSITIONS AS SMARCA2/4 DEGRADERS AND USES THEREOF” (REGENTS OF THE UNIVERSITY OF MICHIGAN, priority 2022, published 2026)

Experiments:
SMARCA2 = SMARCA2 (Homo sapiens, UniProt P51531); assay: HiBit assay in engineered HT1080 CRISPR knock-in cell, 6 hrs (B series), SMARCA2; type: cell-based; settings: 6 hrs incubation; for DC50: HT1080 CRISPR knock-in cells, read-out: SMARC A2 HT1080 HiBit DC50; for Dmax: HT-1080, HT1080 CRISPR knock-in cells, read-out: SMARC A2 HT1080 HiBit Dmax (%)
Method in brief: (§1)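 Compounds were dispensed first, then HT1080 knock-in cells added and incubated for 6 hrs at 37° C. Next, detection reagent containing LgBiT and lytic substrate was added. Plates were shaken 10 min and centrifuged, and luminescence was measured.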

SMARCA4 = SMARCA4 (Homo sapiens, UniProt P51532); assay: HiBit assay in engineered HT1080 CRISPR knock-in cell, 6 hrs (B series), SMARCA4; type: cell-based; settings: 6 hrs incubation; for DC50: HT1080 CRISPR knock-in cells, read-out: SMARC A4 HT1080 HiBit DC50; for Dmax: HT-1080, HT1080 CRISPR knock-in cells, read-out: SMARC A4 HT1080 HiBit Dmax(%)
Method in brief: as §1

Chain of SMARCA4 (P51532 whole entry): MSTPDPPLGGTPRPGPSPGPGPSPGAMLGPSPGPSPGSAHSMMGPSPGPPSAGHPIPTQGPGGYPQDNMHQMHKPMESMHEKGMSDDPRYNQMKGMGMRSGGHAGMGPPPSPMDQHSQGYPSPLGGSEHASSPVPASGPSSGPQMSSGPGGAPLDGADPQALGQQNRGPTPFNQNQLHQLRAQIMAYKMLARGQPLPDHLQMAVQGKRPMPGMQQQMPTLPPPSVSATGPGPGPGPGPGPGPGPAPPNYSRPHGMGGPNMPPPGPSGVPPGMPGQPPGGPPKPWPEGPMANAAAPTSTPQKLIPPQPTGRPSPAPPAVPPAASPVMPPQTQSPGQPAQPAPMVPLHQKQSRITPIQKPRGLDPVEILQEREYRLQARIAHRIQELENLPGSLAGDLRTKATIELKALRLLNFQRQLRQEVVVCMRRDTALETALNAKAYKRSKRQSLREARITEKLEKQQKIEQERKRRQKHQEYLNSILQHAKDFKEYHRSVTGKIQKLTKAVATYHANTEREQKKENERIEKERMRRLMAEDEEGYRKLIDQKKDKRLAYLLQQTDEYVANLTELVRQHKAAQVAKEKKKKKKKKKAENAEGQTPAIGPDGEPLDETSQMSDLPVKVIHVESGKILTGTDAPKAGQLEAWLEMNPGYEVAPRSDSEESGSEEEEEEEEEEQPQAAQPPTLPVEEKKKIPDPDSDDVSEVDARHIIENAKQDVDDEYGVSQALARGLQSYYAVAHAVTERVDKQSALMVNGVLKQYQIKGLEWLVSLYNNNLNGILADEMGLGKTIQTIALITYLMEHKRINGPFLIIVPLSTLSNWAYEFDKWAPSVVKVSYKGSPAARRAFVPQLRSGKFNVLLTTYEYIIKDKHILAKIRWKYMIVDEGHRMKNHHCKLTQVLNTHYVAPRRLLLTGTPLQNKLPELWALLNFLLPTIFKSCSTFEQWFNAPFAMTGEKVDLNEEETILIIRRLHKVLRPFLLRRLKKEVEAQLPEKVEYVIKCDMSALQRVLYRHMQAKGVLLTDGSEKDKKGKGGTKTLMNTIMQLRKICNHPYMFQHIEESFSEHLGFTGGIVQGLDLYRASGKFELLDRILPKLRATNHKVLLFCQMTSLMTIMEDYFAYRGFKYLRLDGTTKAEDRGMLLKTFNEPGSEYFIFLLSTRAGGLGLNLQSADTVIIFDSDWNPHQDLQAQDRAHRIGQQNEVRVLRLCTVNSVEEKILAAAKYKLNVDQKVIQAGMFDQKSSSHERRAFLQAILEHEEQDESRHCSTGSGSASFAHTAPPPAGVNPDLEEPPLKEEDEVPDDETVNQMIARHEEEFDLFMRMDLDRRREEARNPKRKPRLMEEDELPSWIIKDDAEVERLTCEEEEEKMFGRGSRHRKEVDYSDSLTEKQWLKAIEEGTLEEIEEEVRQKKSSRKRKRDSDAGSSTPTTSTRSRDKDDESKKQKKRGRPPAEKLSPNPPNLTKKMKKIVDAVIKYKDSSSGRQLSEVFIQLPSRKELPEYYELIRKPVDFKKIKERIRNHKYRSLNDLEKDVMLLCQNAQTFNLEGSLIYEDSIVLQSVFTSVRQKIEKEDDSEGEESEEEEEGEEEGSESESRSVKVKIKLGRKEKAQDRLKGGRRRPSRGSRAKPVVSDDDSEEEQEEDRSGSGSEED
Chain of SMARCA2 (P51531 whole entry): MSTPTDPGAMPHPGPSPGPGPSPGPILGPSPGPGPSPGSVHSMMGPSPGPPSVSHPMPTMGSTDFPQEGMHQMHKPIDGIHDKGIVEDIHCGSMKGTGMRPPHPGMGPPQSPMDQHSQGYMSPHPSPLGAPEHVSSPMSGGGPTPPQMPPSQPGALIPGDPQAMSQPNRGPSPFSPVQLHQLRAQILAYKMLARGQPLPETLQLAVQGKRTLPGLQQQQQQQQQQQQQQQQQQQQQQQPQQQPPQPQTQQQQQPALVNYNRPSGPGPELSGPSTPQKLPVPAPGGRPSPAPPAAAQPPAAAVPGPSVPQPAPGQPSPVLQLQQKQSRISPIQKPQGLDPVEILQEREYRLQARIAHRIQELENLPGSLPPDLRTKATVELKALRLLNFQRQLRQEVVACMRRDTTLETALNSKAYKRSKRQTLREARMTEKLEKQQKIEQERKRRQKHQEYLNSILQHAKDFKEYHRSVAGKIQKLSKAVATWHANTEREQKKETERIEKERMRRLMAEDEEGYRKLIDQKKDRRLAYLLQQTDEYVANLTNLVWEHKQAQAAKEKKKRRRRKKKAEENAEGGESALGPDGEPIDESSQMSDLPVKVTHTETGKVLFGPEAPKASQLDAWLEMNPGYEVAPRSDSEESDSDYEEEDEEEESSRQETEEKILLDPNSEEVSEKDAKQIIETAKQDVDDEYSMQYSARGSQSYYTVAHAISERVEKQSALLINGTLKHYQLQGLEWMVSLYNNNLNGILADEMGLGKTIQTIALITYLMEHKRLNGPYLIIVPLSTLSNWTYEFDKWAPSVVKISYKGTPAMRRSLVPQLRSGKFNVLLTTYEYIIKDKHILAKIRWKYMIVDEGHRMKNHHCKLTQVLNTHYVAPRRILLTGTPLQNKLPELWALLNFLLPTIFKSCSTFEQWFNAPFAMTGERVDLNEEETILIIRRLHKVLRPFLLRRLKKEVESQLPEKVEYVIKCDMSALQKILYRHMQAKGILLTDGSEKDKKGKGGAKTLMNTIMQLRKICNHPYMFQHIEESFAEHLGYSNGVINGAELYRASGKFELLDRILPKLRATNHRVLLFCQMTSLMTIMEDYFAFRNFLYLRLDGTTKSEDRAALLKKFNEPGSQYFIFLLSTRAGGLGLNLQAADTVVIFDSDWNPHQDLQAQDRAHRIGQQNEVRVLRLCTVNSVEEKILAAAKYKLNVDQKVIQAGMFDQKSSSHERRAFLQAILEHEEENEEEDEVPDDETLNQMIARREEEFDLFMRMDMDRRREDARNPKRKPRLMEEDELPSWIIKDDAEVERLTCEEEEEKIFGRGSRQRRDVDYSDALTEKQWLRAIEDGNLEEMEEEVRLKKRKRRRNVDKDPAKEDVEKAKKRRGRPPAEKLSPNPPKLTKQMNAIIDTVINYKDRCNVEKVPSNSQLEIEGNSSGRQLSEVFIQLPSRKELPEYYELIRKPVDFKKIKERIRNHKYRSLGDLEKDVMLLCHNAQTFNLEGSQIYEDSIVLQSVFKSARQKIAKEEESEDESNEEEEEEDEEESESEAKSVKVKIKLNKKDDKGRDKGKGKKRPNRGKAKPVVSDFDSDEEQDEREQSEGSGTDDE

| Structure (SMILES) | DC50 (SMARCA2) [nM] | Dmax (SMARCA2) [%] | DC50 (SMARCA4) [nM] | Dmax (SMARCA4) [%] |
| --- | --- | --- | --- | --- |
| Cc1ncsc1-c1ccc([C@H](C)NC(=O)[C@@H]2C[C@@H](O)CN2C(=O)[C@H](C(C)C)n2cc([C@H]3CC[C@H](CN4CCN(c5ccc6c(c5)-n5c(nc(=O)c7c(Cl)cccc75)C6(C)C)CC4)CC3)nn2)cc1 [Compound B120, (2S,4R)-1-((S)-2-(4-((1r,4S)-4-((4-(4-chloro-7,7-dimethyl-5-oxo-5,7-dihydroindolo[1,2-a]quinazolin-10-yl)piperazin-1-yl)methyl)cyclohexyl)-1H-1,2,3-triazol-1-yl)-3-methylbutanoyl)-4-hydroxy-N-((S)-1-(4-(4-methylthiazol-5-yl)phenyl)ethyl)pyrrolidine-2-carboxamide] | < 100 | > 90 | < 100 | 70 to 90 |
| Cc1ncsc1-c1ccc([C@H](C)NC(=O)[C@@H]2C[C@@H](O)CN2C(=O)[C@@H](n2cc([C@H]3CC[C@H](CN4CCN(c5ccc6c(c5)-n5c(nc(=O)c7c(Cl)cccc75)C6(C)C)CC4)CC3)nn2)C(C)(C)C)cc1 [Compound B121, (2S,4R)-1-((S)-2-(4-((1r,4S)-4-((4-(4-chloro-7,7-dimethyl-5-oxo-5,7-dihydroindolo[1,2-a]quinazolin-10-yl)piperazin-1-yl)methyl)cyclohexyl)-1H-1,2,3-triazol-1-yl)-3,3-dimethylbutanoyl)-4-hydroxy-N-((S)-1-(4-(4-methylthiazol-5-yl)phenyl)ethyl)pyrrolidine-2-carboxamide] | < 100 | > 90 | < 100 | 70 to 90 |
| Cc1ncsc1-c1ccc2c(c1)CC[C@H]2NC(=O)[C@@H]1C[C@@H](O)CN1C(=O)[C@@H](n1cc([C@H]2CC[C@H](CN3CCC(c4ccc5c(c4)-n4c(nc(=O)c6c(Cl)cccc64)C5(C)C)CC3)CC2)nn1)C(C)(C)C [Compound B122, (2S,4R)-1-((S)-2-(4-((1r,4S)-4-((4-(4-chloro-7,7-dimethyl-5-oxo-5,7-dihydroindolo[1,2-a]quinazolin-10-yl)piperidin-1-yl)methyl)cyclohexyl)-1H-1,2,3-triazol-1-yl)-3,3-dimethylbutanoyl)-4-hydroxy-N-((R)-5-(4-methylthiazol-5-yl)-2,3-dihydro-1H-inden-1-yl)pyrrolidine-2-carboxamide] | 100 to 500 | 70 to 90 | 100 to 500 | < 50 |
| Cc1ncsc1-c1ccc2c(c1)CC[C@@H]2NC(=O)[C@@H]1C[C@@H](O)CN1C(=O)[C@@H](n1cc([C@H]2CC[C@H](CN3CCC(c4ccc5c(c4)-n4c(nc(=O)c6c(Cl)cccc64)C5(C)C)CC3)CC2)nn1)C(C)(C)C [Compound B123, (2S,4R)-1-((S)-2-(4-((1r,4S)-4-((4-(4-chloro-7,7-dimethyl-5-oxo-5,7-dihydroindolo[1,2-a]quinazolin-10-yl)piperidin-1-yl)methyl)cyclohexyl)-1H-1,2,3-triazol-1-yl)-3,3-dimethylbutanoyl)-4-hydroxy-N-((S)-5-(4-methylthiazol-5-yl)-2,3-dihydro-1H-inden-1-yl)pyrrolidine-2-carboxamide] | < 100 | 70 to 90 | 100 to 500 | < 50 |
| Cc1ncsc1-c1ccc(C2(NC(=O)[C@@H]3C[C@@H](O)CN3C(=O)[C@@H](n3cc([C@H]4CC[C@H](CN5CCC(c6ccc7c(c6)-n6c(nc(=O)c8c(Cl)cccc86)C7(C)C)CC5)CC4)nn3)C(C)(C)C)CN(C)C2)cc1 [Compound B124, (2S,4R)-1-((S)-2-(4-((1r,4S)-4-((4-(4-chloro-7,7-dimethyl-5-oxo-5,7-dihydroindolo[1,2-a]quinazolin-10-yl)piperidin-1-yl)methyl)cyclohexyl)-1H-1,2,3-triazol-1-yl)-3,3-dimethylbutanoyl)-4-hydroxy-N-(1-methyl-3-(4-(4-methylthiazol-5-yl)phenyl)azetidin-3-yl)pyrrolidine-2-carboxamide] | < 100 | 70 to 90 | 100 to 500 | < 50 |
| C[C@H](NC(=O)[C@@H]1C[C@@H](O)CN1C(=O)[C@@H](n1cc([C@H]2CC[C@H](CN3CCN(c4ccc5c(c4)-n4c(nc(=O)c6c(Cl)cccc64)C5(C)C)CC3)CC2)nn1)C(C)(C)C)c1ccc(-c2ccnn2C)cc1 [Compound B125, (2S,4R)-1-((S)-2-(4-((1r,4S)-4-((4-(4-chloro-7,7-dimethyl-5-oxo-5,7-dihydroindolo[1,2-a]quinazolin-10-yl)piperazin-1-yl)methyl)cyclohexyl)-1H-1,2,3-triazol-1-yl)-3,3-dimethylbutanoyl)-4-hydroxy-N-((S)-1-(4-(1-methyl-1H-pyrazol-5-yl)phenyl)ethyl)pyrrolidine-2-carboxamide] | < 100 | > 90 | < 100 | 70 to 90 |
| Cc1ncoc1-c1ccc([C@H](C)NC(=O)[C@@H]2C[C@@H](O)CN2C(=O)[C@@H](n2cc([C@H]3CC[C@H](CN4CCN(c5ccc6c(c5)-n5c(nc(=O)c7c(Cl)cccc75)C6(C)C)CC4)CC3)nn2)C(C)(C)C)cc1 [Compound B126, (2S,4R)-1-((S)-2-(4-((1r,4S)-4-((4-(4-chloro-7,7-dimethyl-5-oxo-5,7-dihydroindolo[1,2-a]quinazolin-10-yl)piperazin-1-yl)methyl)cyclohexyl)-1H-1,2,3-triazol-1-yl)-3,3-dimethylbutanoyl)-4-hydroxy-N-((S)-1-(4-(4-methyloxazol-5-yl)phenyl)ethyl)pyrrolidine-2-carboxamide] | < 100 | > 90 | < 100 | 50 to 69 |
| C[C@H](NC(=O)[C@@H]1C[C@@H](O)CN1C(=O)[C@@H](n1cc([C@H]2CC[C@H](CN3CCN(c4ccc5c(c4)-n4c(nc(=O)c6c(Cl)cccc64)C5(C)C)CC3)CC2)nn1)C(C)(C)C)c1ccc(-c2ccn[nH]2)cc1 [Compound B127, (2S,4R)-N-((S)-1-(4-(1H-pyrazol-5-yl)phenyl)ethyl)-1-((S)-2-(4-((1r,4S)-4-((4-(4-chloro-7,7-dimethyl-5-oxo-5,7-dihydroindolo[1,2-a]quinazolin-10-yl)piperazin-1-yl)methyl)cyclohexyl)-1H-1,2,3-triazol-1-yl)-3,3-dimethylbutanoyl)-4-hydroxypyrrolidine-2-carboxamide] | < 100 | > 90 | < 100 | 70 to 90 |
| C#Cc1ccc([C@H](C)NC(=O)[C@@H]2C[C@@H](O)CN2C(=O)[C@H](C(C)C)n2cc([C@H]3CC[C@H](CN4CCC(c5ccc6c(c5)-n5c(nc(=O)c7c(Cl)cccc75)C6(C)C)CC4)CC3)nn2)cc1 [Compound B128, (2S,4R)-1-((S)-2-(4-((1r,4S)-4-((4-(4-chloro-7,7-dimethyl-5-oxo-5,7-dihydroindolo[1,2-a]quinazolin-10-yl)piperidin-1-yl)methyl)cyclohexyl)-1H-1,2,3-triazol-1-yl)-3-methylbutanoyl)-N-((S)-1-(4-ethynylphenyl)ethyl)-4-hydroxypyrrolidine-2-carboxamide] | < 100 | > 90 | < 100 | 70 to 90 |
| Cc1ncsc1-c1ccc([C@H](CN2CCOCC2)NC(=O)[C@@H]2C[C@@H](O)CN2C(=O)[C@H](C(C)C)n2cc([C@H]3CC[C@H](CN4CCN(c5ccc6c(c5)-n5c(nc(=O)c7c(Cl)cccc75)C6(C)C)CC4)CC3)nn2)cc1 [Compound B129, (2S,4R)-1-((S)-2-(4-((1r,4S)-4-((4-(4-chloro-7,7-dimethyl-5-oxo-5,7-dihydroindolo[1,2-a]quinazolin-10-yl)piperazin-1-yl)methyl)cyclohexyl)-1H-1,2,3-triazol-1-yl)-3-methylbutanoyl)-4-hydroxy-N-((R)-1-(4-(4-methylthiazol-5-yl)phenyl)-2-morpholinoethyl)pyrrolidine-2-carboxamide] | < 100 | > 90 | < 100 | 70 to 90 |
| Cc1ncsc1-c1ccc([C@H](C)NC(=O)[C@@H]2C[C@@H](O)CN2C(=O)[C@@H](c2cc(OCC#Cc3cccc4c3C(C)(C)c3nc(=O)c5c(Cl)cccc5n3-4)no2)C(C)C)cc1 [Compound B130, (2S,4R)-1-((R)-2-(3-((3-(4-chloro-7,7-dimethyl-5-oxo-5,7-dihydroindolo[1,2-a]quinazolin-8-yl)prop-2-yn-1-yl)oxy)isoxazol-5-yl)-3-methylbutanoyl)-4-hydroxy-N-((S)-1-(4-(4-methylthiazol-5-yl)phenyl)ethyl)pyrrolidine-2-carboxamide] | < 100 | > 90 | 100 to 500 | 50 to 69 |
| CC#Cc1ccc([C@H](C)NC(=O)[C@@H]2C[C@@H](O)CN2C(=O)[C@H](C(C)C)n2cc([C@H]3CC[C@H](CN4CCC(c5ccc6c(c5)-n5c(nc(=O)c7c(Cl)cccc75)C6(C)C)CC4)CC3)nn2)cc1 [Compound B131, (2S,4R)-1-((S)-2-(4-((1r,4S)-4-((4-(4-chloro-7,7-dimethyl-5-oxo-5,7-dihydroindolo[1,2-a]quinazolin-10-yl)piperidin-1-yl)methyl)cyclohexyl)-1H-1,2,3-triazol-1-yl)-3-methylbutanoyl)-4-hydroxy-N-((S)-1-(4-(prop-1-yn-1-yl)phenyl)ethyl)pyrrolidine-2-carboxamide] | < 100 | > 90 | < 100 | 50 to 69 |
